Assay: In vitro metabolic stability: percent of compound remaining in human liver microsomes
Type: in vitro ADME
Conditions: for Percent of Compound Remaining Over Time / Dunnett's Multiple Comparison Test Mean Diff. (percent remaining, 2C-B minus compound): human liver microsomes; for rate of metabolism compared with 2C-B: human liver microsomes, 15, 30, 45 and 60 minutes of incubation; for rate of metabolism compared with 2C-B / Dunnett's Multiple Comparison Test Mean Diff. (percent remaining, 2C-B minus compound): 2C-B as control drug; for Dunnett's Multiple Comparison Test Mean Diff. (percent remaining, 2C-B minus compound): one-way ANOVA with Dunnett's post-test
Procedure: A high-throughput assay is used to determine metabolic stability of disclosed compounds and undeuterated analogs thereof in various matrices, including human liver microsomes, using LCMS analysis to quantify the percent compound remaining after incubation. Briefly, the disclosed compound is mixed with liver microsomes and activated. Following this incubation, acetonitrile is added to terminate the reaction. Then, the samples are centrifuged and the supernatant is dried. The residue is reconstituted and analyzed using liquid chromatography-mass spectrometry. Pharmacokinetic parameters are calculated using a noncompartmental model. The half-life (t1/2) is estimated from the slope of the initial linear range of the logarithmic curve of compound remaining (%) versus time, assuming first order kinetics.
In one such assay of metabolic stability, percent of compound remaining was determined in human liver microsomes after 15, 30, 45, and 60 minutes of incubation, for 2C-B, 2C-B-2-OCD3 (compound I-B-31), and 2C-B-5-OCD3 (compound I-A-31).

Compound	Percent of Compound Remaining Over Time (0 minutes of incubation) [%]	rate of metabolism compared with 2C-B	Percent of Compound Remaining Over Time (15 minutes of incubation) [%]	Percent of Compound Remaining Over Time (30 minutes of incubation) [%]	Percent of Compound Remaining Over Time (45 minutes of incubation) [%]	Percent of Compound Remaining Over Time (60 minutes of incubation) [%]	Dunnett's Multiple Comparison Test Mean Diff. (percent remaining, 2C-B minus compound)
Cl.[2H]C([2H])([2H])Oc1cc(CCN)c(OC)cc1Br [Compound 2C-B-5-OCD3, 2-(4-bromo-2-methoxy-5-(methoxy-d3)phenyl)ethan-1-amine hydrochloride]	100.0000	metabolized more quickly than 2C-B	96.2535	90.6402	90.7021	86.9011	14.31
Cl.[2H]C([2H])([2H])Oc1cc(Br)c(OC)cc1CCN [Compound 2C-B-2-OCD3, 2-(4-bromo-5-methoxy-2-(methoxy-d3)phenyl)ethan-1-amine hydrochloride]	100.0000	metabolized more quickly than 2C-B	95.8357	91.9169	98.7307	91.6972	11.57
COc1cc(CCN)c(OC)cc1Br [Compound 2C-B, 2-(4-bromo-2,5-dimethoxyphenyl)ethanamine, reference compound]	100.0000	–	104.3970	109.8740	105.1500	116.6050	–
